{
  "source": "patent US20100267561A1",
  "about": "“HERBICIDAL PYRIDAZINONE DERIVATIVES” (priority 2007, published 2010)",
  "assay_type_in_all_cases": "in vivo",
  "key": {"[1]": {"tested_on": "wild oat (AVEFA, Avena fatua)", "test": "Test F mixtures with safener cloquintocet-mexyl, pre-/postemergence plant response", "conditions": "for AVEFA Obsd. (observed effect) plant response rating, scale 0 to 100: applied alone", "description": "(§1) This test evaluated the effect of mixtures of Compound 3, Compound 11, or Compound 12 with the commercial crop safener cloquintocet-mexyl on three plant species. Seeds of test plants consisting of winter wheat (TRZAW, Triticum aestivum), winter barley (HORVX, Hordeum vulgare), and wild oat (AVEFA, Avena fatua) (a weed) were planted into a blend of loam soil and sand and treated preemergence with a directed soil spray using test chemicals formulated in a non-phytotoxic solvent mixture that included a surfactant. At the same time, plants selected from these crop and weed species were treated with postemergence applications of the test chemicals formulated in the same manner. Plants ranged in height from 2 to 18 cm (1- to 4-leaf stage) for postemergence treatments.\n(§2) Plants were grown in a greenhouse using supplemental lighting to maintain a photoperiod of about 16 hours; daytime and nighttime temperatures were about 24-30° C. and 19-21° C., respectively. Balanced fertilizer was applied through the watering system. Treatments consisted of Compound 3, Compound 11, or Compound 12 and the above mentioned safener alone and in combination using a spray volume of 457 L/ha. Each treatment was replicated three times. Treated plants and controls were maintained in a greenhouse for 14 to 21 days, after which time all treated plants were compared to controls and visually evaluated. Plant response ratings were calculated as the means of the three replicates and are summarized in Tables F1 to F6, and are based on a scale of 0 to 100 where 0 is no effect and 100 is complete control. Because cloquintocet-mexyl alone caused no injury at the rates tested, the expected effect of a mixture of Compound 3 with cloquintocet-mexyl is the same as the observed effect of Compound 3 applied alone."}, "[2]": {"tested_on": "winter wheat (TRZAW, Triticum aestivum)", "test": "Test F mixtures with safener cloquintocet-mexyl, pre-/postemergence plant response", "conditions": "for TRZAW Obsd. (observed effect) plant response rating, scale 0 to 100: applied alone", "description": "as §1, §2"}, "[3]": {"tested_on": "winter barley (HORVX, Hordeum vulgare)", "test": "Test F mixtures with safener cloquintocet-mexyl, pre-/postemergence plant response", "conditions": "for HORVX Obsd. (observed effect) plant response rating, scale 0 to 100: applied alone", "description": "as §1, §2"}, "[4]": {"tested_on": "wild oat (AVEFA, Avena fatua)", "test": "Test G mixtures of Compound 26 with crop safeners, postemergence plant response", "conditions": "applied alone, 125 g a.i./ha", "method": "(§3) This test evaluated the effect of mixtures of Compound 26 with commercial crop safeners cloquintocet-mexyl, mefenpyr-diethyl, and fenchlorazole-ethyl on three plant species. Seeds of winter wheat (TRZAW, Triticum aestivum), winter barley (HORVX, Hordeum vulgare), and wild oat (AVEFA, Avena fatua) (a weed) were planted into a silt loam soil. Plants from these seeds were treated postemergence using test chemicals formulated in a non-phytotoxic solvent mixture that included a surfactant. Plants ranged in height from 6 to 10 cm (2- to 3-leaf stage).\n(§4) Plants were grown in a greenhouse using supplemental lighting to maintain a photoperiod of about 14 hours; daytime and nighttime temperatures were about 22-26° C. and 15-19° C., respectively. Balanced fertilizer was applied through the watering system. Treatments consisted of Compound 26 and the above mentioned safeners alone and in combination using a spray volume of 281 L/ha. Each treatment was replicated four times. Treated plants and controls were maintained in a greenhouse for 15 days, after which time all treated plants were compared to controls and visually evaluated. Plant response ratings were calculated as the means of the four replicates based on a scale of 0 to 100 where 0 is no effect and 100 is complete control and are summarized in Tables G1 to G3. Because the safeners alone caused no injury at the rates tested, the expected effect of a mixture of Compound 26 with a safener is the same as the observed effect of Compound 26 alone.\n(§5) The highest application rate of each safener was tested alone to confirm the absence of herbicidal activity on the test species when appled postemergence at 125 g ai/ha. Therefore, an extrapolated result of zero for each safener alone at 16, 31, or 62 g ai/ha was used to calculate the mixture response of Compound 26 and these safener application rates."}, "[5]": {"tested_on": "winter wheat (TRZAW, Triticum aestivum)", "test": "Test G mixtures of Compound 26 with crop safeners, postemergence plant response", "conditions": "applied alone, 125 g a.i./ha", "method": "as §3, §4, §5"}, "[6]": {"tested_on": "winter barley (HORVX, Hordeum vulgare)", "test": "Test G mixtures of Compound 26 with crop safeners, postemergence plant response", "conditions": "applied alone, 125 g a.i./ha", "method": "as §3, §4, §5"}},
  "data": [
    {"smiles": "CCCCCC(C)OC(=O)COc1ccc(Cl)c2cccnc12", "note": "(stereo not drawn) [cloquintocet-mexyl, reference compound]", "values": [
      {"measurement": "AVEFA Obsd. (observed effect) plant response rating, scale 0 to 100", "setting": "[1]; postemergence, 4 g a.i./ha", "result": 0},
      {"measurement": "AVEFA Obsd. (observed effect) plant response rating, scale 0 to 100", "setting": "[1]; postemergence, 8 g a.i./ha", "result": 0},
      {"measurement": "AVEFA Obsd. (observed effect) plant response rating, scale 0 to 100", "setting": "[1]; preemergence, 4 g a.i./ha", "result": 0},
      {"measurement": "AVEFA Obsd. (observed effect) plant response rating, scale 0 to 100", "setting": "[1]; preemergence, 8 g a.i./ha", "result": 0},
      {"measurement": "plant response (injury), safener alone", "setting": "[1]; wild oat, safener alone at the rates tested, pre- and postemergence, 14 to 21 days", "result": "no injury"},
      {"measurement": "TRZAW Obsd. (observed effect) plant response rating, scale 0 to 100", "setting": "[2]; postemergence, 4 g a.i./ha", "result": 0},
      {"measurement": "TRZAW Obsd. (observed effect) plant response rating, scale 0 to 100", "setting": "[2]; postemergence, 8 g a.i./ha", "result": 0},
      {"measurement": "TRZAW Obsd. (observed effect) plant response rating, scale 0 to 100", "setting": "[2]; preemergence, 4 g a.i./ha", "result": 0},
      {"measurement": "TRZAW Obsd. (observed effect) plant response rating, scale 0 to 100", "setting": "[2]; preemergence, 8 g a.i./ha", "result": 0},
      {"measurement": "plant response (injury), safener alone", "setting": "[2]; winter wheat, safener alone at the rates tested, pre- and postemergence, 14 to 21 days", "result": "no injury"},
      {"measurement": "HORVX Obsd. (observed effect) plant response rating, scale 0 to 100", "setting": "[3]; postemergence, 4 g a.i./ha", "result": 0},
      {"measurement": "HORVX Obsd. (observed effect) plant response rating, scale 0 to 100", "setting": "[3]; postemergence, 8 g a.i./ha", "result": 0},
      {"measurement": "HORVX Obsd. (observed effect) plant response rating, scale 0 to 100", "setting": "[3]; preemergence, 4 g a.i./ha", "result": 0},
      {"measurement": "HORVX Obsd. (observed effect) plant response rating, scale 0 to 100", "setting": "[3]; preemergence, 8 g a.i./ha", "result": 0},
      {"measurement": "plant response (injury), safener alone", "setting": "[3]; winter barley, safener alone at the rates tested, pre- and postemergence, 14 to 21 days", "result": "no injury"},
      {"measurement": "AVEFA Obsd. (observed effect) plant response rating, scale 0 to 100", "setting": "[4]", "result": 0},
      {"measurement": "TRZAW Obsd. (observed effect) plant response rating, scale 0 to 100", "setting": "[5]", "result": 0},
      {"measurement": "HORVX Obsd. (observed effect) plant response rating, scale 0 to 100", "setting": "[6]", "result": 0}
    ]}
  ]
}
